Paper PMC4545587 (Biochimica et biophysica acta, 2013)
No end group written: not given here.

Legend:
eukaryotic cells = conditions: cited from earlier work
[1] = tested on: Pseudomonas aeruginosa type 1; format: cell-based

KLFKRHLKWKII [SC4]
lytic effect on eukaryotic cells (eukaryotic cells): no apparent lytic effect
MIC value against P. aeruginosa ([1]; type 1): ~ 18 µM
P.a. LD50 ([1]; type 1, pH 7): 0.14 µM
